Tests used:
Type in all cases: cell-based
Conditions in all cases: 24 hours of compound treatment, 50 nM and 500 nM
GSPT1 = biological target: T1, GSPT1 (Homo sapiens, UniProt P15170+Q96SW2); experiment: Western-blot assay, substrate protein degradation in hPBMCs: GSPT1
T1 construct: effects of the compounds of the present disclosure on the expression of target proteins in cells; endogenous in cells; host or cells: human PBMCs (hPBMCs)

CK1α = biological target: T2, CK1α (Homo sapiens, UniProt P48729+Q96SW2); experiment: Western-blot assay, substrate protein degradation in hPBMCs: CK1α
T2 construct: effects of the compounds of the present disclosure on the expression of target proteins in cells; endogenous in cells; host or cells: human PBMCs (hPBMCs)

IKZF3 = biological target: T3, IKZF3 (Homo sapiens, UniProt Q96SW2+Q9UKT9); experiment: Western-blot assay, substrate protein degradation in hPBMCs: IKZF3
T3 construct: effects of the compounds of the present disclosure on the expression of target proteins in cells; endogenous in cells; host or cells: human PBMCs (hPBMCs)

IKZF2 = biological target: T4, IKZF2 (Homo sapiens, UniProt Q96SW2+Q9UKS7); experiment: Western-blot assay, substrate protein degradation in hPBMCs: IKZF2
T4 construct: effects of the compounds of the present disclosure on the expression of target proteins in cells; endogenous in cells; host or cells: human PBMCs (hPBMCs)

WEE1 = biological target: T5, WEE1 (Homo sapiens, UniProt P30291+Q96SW2); experiment: Western-blot assay, substrate protein degradation in hPBMCs: WEE1
T5 construct: effects of the compounds of the present disclosure on the expression of target proteins in cells; endogenous in cells; host or cells: human PBMCs (hPBMCs)

IKZF1 = biological target: T6, IKZF1 (Homo sapiens, UniProt Q13422+Q96SW2); experiment: Western-blot assay, substrate protein degradation in hPBMCs: IKZF1
T6 construct: effects of the compounds of the present disclosure on the expression of target proteins in cells; endogenous in cells; host or cells: human PBMCs (hPBMCs)
T6 sequence (Q13422 whole entry): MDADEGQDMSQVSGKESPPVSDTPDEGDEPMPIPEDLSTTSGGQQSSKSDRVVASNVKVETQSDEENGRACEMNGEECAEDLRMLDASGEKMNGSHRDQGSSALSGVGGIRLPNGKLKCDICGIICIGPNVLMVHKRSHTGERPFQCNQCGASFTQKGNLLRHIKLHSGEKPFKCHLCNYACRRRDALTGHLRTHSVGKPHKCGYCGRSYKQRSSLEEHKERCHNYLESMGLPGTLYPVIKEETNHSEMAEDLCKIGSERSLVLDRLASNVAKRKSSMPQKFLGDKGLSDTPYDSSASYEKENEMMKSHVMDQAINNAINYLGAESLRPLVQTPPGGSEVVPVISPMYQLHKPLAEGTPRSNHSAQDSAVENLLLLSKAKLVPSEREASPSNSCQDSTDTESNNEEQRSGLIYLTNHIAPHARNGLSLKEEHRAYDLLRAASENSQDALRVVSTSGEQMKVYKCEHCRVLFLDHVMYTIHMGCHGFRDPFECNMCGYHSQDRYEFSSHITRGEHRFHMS
T6 sequence (Q96SW2 whole entry): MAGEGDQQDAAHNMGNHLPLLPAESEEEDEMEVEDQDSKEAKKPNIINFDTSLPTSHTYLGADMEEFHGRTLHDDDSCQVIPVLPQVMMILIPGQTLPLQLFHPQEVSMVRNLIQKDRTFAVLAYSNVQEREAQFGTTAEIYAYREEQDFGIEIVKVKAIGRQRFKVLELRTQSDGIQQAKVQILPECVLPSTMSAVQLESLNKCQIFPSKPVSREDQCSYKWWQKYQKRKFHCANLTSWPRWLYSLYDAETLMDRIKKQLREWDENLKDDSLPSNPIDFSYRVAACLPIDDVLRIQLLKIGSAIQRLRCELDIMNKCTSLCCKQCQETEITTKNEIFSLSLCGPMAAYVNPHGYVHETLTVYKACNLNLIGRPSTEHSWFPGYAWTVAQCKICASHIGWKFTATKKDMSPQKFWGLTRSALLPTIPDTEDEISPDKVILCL
T6 sequence (Q16531 whole entry partner): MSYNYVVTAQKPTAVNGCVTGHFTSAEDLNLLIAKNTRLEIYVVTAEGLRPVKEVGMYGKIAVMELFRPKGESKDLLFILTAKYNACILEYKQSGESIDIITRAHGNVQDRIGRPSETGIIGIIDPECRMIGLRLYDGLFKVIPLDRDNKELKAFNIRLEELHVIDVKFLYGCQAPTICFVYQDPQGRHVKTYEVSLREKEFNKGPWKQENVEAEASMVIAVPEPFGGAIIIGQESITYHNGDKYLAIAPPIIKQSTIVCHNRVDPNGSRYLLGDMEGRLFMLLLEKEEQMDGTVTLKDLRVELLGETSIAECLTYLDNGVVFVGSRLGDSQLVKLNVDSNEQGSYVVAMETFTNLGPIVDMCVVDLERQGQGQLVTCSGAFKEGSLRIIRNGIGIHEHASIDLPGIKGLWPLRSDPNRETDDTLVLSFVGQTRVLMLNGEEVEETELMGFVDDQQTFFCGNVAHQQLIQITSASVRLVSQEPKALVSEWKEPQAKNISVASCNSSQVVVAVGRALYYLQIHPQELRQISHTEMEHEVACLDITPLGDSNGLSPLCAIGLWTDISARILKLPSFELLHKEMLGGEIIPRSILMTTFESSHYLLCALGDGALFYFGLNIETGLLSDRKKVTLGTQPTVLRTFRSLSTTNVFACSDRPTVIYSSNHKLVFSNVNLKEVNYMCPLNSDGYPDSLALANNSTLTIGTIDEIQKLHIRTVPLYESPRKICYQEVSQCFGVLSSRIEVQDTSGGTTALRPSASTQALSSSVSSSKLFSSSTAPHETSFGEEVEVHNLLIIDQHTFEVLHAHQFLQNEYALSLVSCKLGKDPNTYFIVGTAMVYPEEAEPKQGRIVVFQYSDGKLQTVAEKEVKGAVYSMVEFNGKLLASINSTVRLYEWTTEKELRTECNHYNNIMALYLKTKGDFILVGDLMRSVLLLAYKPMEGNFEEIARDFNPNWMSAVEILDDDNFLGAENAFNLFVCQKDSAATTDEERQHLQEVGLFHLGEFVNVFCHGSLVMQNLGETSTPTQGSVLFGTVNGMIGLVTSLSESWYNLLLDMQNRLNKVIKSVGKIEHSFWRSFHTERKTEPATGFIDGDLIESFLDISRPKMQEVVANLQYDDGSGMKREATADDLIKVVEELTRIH

T1 sequence (P15170 whole entry): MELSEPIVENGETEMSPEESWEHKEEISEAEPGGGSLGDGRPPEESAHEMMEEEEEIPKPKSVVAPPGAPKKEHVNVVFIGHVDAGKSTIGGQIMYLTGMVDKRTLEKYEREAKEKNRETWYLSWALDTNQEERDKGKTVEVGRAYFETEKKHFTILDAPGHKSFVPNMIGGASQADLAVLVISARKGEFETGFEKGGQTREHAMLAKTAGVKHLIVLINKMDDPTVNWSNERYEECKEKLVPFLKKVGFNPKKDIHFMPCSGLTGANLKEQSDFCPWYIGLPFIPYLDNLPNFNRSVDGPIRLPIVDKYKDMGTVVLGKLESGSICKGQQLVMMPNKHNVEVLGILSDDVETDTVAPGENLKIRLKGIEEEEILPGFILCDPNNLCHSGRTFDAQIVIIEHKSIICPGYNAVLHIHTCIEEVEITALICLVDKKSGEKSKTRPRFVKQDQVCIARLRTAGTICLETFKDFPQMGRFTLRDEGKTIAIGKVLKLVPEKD
T1 sequence (Q96SW2 whole entry): as the sequence (Q96SW2 whole entry) above
T1 sequence (Q16531 whole entry partner): as the sequence (Q16531 whole entry partner) above
T3 sequence (Q9UKT9 whole entry): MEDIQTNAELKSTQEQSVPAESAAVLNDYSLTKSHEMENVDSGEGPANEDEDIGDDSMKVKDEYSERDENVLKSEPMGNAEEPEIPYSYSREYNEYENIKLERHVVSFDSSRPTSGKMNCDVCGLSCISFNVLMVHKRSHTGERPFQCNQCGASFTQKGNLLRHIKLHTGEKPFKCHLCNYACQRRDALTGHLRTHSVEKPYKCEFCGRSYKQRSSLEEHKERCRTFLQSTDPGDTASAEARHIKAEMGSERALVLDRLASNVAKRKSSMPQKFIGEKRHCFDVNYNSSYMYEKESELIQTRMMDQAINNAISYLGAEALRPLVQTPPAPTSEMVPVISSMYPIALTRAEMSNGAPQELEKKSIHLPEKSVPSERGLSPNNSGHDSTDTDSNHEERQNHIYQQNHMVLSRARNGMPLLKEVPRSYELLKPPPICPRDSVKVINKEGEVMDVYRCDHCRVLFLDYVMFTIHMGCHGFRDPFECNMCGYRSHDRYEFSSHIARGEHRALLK
T3 sequence (Q96SW2 whole entry): as the sequence (Q96SW2 whole entry) above
T3 sequence (Q16531 whole entry partner): as the sequence (Q16531 whole entry partner) above
T4 sequence (Q9UKS7 whole entry): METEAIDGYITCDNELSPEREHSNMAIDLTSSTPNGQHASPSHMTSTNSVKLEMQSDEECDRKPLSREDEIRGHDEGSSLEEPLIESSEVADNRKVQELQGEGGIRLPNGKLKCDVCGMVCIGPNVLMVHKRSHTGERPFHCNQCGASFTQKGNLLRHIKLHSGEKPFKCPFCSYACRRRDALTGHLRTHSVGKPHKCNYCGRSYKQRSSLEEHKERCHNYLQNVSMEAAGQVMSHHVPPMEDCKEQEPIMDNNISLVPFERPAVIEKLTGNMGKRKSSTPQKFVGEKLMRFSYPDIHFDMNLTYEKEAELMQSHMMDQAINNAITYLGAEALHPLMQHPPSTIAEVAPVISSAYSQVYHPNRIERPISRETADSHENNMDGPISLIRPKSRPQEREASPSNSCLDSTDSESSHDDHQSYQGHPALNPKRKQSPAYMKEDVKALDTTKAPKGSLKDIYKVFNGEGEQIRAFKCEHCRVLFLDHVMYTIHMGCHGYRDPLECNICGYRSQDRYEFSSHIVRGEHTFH
T4 sequence (Q96SW2 whole entry): as the sequence (Q96SW2 whole entry) above
T4 sequence (Q16531 whole entry partner): as the sequence (Q16531 whole entry partner) above
T2 sequence (P48729 whole entry): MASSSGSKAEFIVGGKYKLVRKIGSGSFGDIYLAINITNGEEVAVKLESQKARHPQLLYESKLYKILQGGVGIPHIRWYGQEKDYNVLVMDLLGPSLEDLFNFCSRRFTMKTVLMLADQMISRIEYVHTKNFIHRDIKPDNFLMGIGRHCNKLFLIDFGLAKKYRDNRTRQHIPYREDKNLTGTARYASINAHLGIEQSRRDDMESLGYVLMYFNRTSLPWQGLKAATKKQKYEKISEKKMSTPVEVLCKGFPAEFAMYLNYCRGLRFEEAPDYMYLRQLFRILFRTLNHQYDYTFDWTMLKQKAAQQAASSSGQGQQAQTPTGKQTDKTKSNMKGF
T2 sequence (Q96SW2 whole entry): as the sequence (Q96SW2 whole entry) above
T2 sequence (Q16531 whole entry partner): as the sequence (Q16531 whole entry partner) above

Row | Structure (SMILES) | substrate protein remaining % GSPT1 (GSPT1) | substrate protein remaining % CK1α (CK1α) | substrate protein remaining % IKZF3 (IKZF3) | substrate protein remaining % IKZF2 (IKZF2) | substrate protein remaining % WEE1 (WEE1) | substrate protein remaining % IKZF1 (IKZF1)
1 | O=C1CCN(N2Cc3cc(CN4CCC(N5C(=O)COc6cc(F)ccc65)CC4)ccc3C2=O)C(=O)N1 [GT-07586, 1-(5-((4-(7-fluoro-3-oxo-2,3-dihydro-4H-benzo[b][1,4]oxazin-4-yl)piperidin-1-yl)methyl)-1-oxoisoindolin-2-yl)dihydropyrimidine-2,4(1H,3H)-dione] | A (0% ≤ substrate protein remaining % ≤ 80%) | B (80%< substrate protein remaining %≤ 100%) | B (80%< substrate protein remaining %≤ 100%) | B (80%< substrate protein remaining %≤ 100%) | A (0% ≤ substrate protein remaining % ≤ 80%) | A (0% ≤ substrate protein remaining % ≤ 80%)
2 | O=C1CCN(N2Cc3cc(CN4CCC(C5CCOc6cc(F)ccc65)CC4)ccc3C2=O)C(=O)N1 (stereo not drawn) [GT-07587, 1-(5-((4-(7-fluorochroman-4-yl)piperidin-1-yl)methyl)-1-oxoisoindolin-2-yl)dihydropyrimidine-2,4(1H,3H)-dione] | A (0% ≤ substrate protein remaining % ≤ 80%) | B (80%< substrate protein remaining %≤ 100%) | B (80%< substrate protein remaining %≤ 100%) | B (80%< substrate protein remaining %≤ 100%) | A (0% ≤ substrate protein remaining % ≤ 80%) | A (0% ≤ substrate protein remaining % ≤ 80%)
3 | O=C1CCN(N2Cc3cc(CN4CCC(=C5CCOc6cc(F)ccc65)CC4)ccc3C2=O)C(=O)N1 [GT-07588, 1-(5-((4-(7-fluorochroman-4-ylidene)piperidin-1-yl)methyl)-1-oxoisoindolin-2-yl)dihydropyrimidine-2,4(1H,3H)-dione] | A (0% ≤ substrate protein remaining % ≤ 80%) | B (80%< substrate protein remaining %≤ 100%) | B (80%< substrate protein remaining %≤ 100%) | B (80%< substrate protein remaining %≤ 100%) | B (80%< substrate protein remaining %≤ 100%) | B (80%< substrate protein remaining %≤ 100%)
4 | O=C1CCN(N2Cc3cc(CN4CCC(c5cccc6c(F)cccc56)CC4)ccc3C2=O)C(=O)N1 [GT-07589, 1-(5-((4-(5-fluoronaphthalen-1-yl)piperidin-1-yl)methyl)-1-oxoisoindolin-2-yl)dihydropyrimidine-2,4(1H,3H)-dione] | A (0% ≤ substrate protein remaining % ≤ 80%) | B (80%< substrate protein remaining %≤ 100%) | B (80%< substrate protein remaining %≤ 100%) | B (80%< substrate protein remaining %≤ 100%) | B (80%< substrate protein remaining %≤ 100%) | B (80%< substrate protein remaining %≤ 100%)
5 | O=C1CCN(N2Cc3cc(CN4CCC(c5noc6ccccc56)CC4)ccc3C2=O)C(=O)N1 [GT-07642, 1-(5-((4-(benzo[d]isoxazol-3-yl)piperidin-1-yl)methyl)-1-oxoisoindolin-2-yl)dihydropyrimidine-2,4(1H,3H)-dione] | A (0% ≤ substrate protein remaining % ≤ 80%) | B (80%< substrate protein remaining %≤ 100%) | B (80%< substrate protein remaining %≤ 100%) | B (80%< substrate protein remaining %≤ 100%) | B (80%< substrate protein remaining %≤ 100%) | B (80%< substrate protein remaining %≤ 100%)
6 | O=C1CCN(N2C(=O)c3ccc(CN4CC=C(c5n[nH]c6cc(F)ccc56)CC4)cc3C2=O)C(=O)N1 [GT-07643, 2-(2,4-dioxotetrahydropyrimidin-1(2H)-yl)-5-((4-(6-fluoro-1H-indazol-3-yl)-3,6-dihydropyridin-1(2H)-yl)methyl)isoindoline-1,3-dione] | A (0% ≤ substrate protein remaining % ≤ 80%) | B (80%< substrate protein remaining %≤ 100%) | B (80%< substrate protein remaining %≤ 100%) | B (80%< substrate protein remaining %≤ 100%) | B (80%< substrate protein remaining %≤ 100%) | B (80%< substrate protein remaining %≤ 100%)
7 | O=C1CCN(N2Cc3cc(CN4CCC(c5cccc6cnccc56)CC4)ccc3C2=O)C(=O)N1 [GT-07644, 1-(5-((4-(isoquinolin-5-yl)piperidin-1-yl)methyl)-1-oxoisoindolin-2-yl)dihydropyrimidine-2,4(1H,3H)-dione] | A (0% ≤ substrate protein remaining % ≤ 80%) | B (80%< substrate protein remaining %≤ 100%) | B (80%< substrate protein remaining %≤ 100%) | B (80%< substrate protein remaining %≤ 100%) | B (80%< substrate protein remaining %≤ 100%) | B (80%< substrate protein remaining %≤ 100%)
8 | O=C1CCN(N2Cc3cc(CN4CCC(c5ccnc6cc(F)ccc56)CC4)ccc3C2=O)C(=O)N1 [GT-07645, 1-(5-((4-(7-fluoroquinolin-4-yl)piperidin-1-yl)methyl)-1-oxoisoindolin-2-yl)dihydropyrimidine-2,4(1H,3H)-dione] | A (0% ≤ substrate protein remaining % ≤ 80%) | B (80%< substrate protein remaining %≤ 100%) | B (80%< substrate protein remaining %≤ 100%) | B (80%< substrate protein remaining %≤ 100%) | B (80%< substrate protein remaining %≤ 100%) | A (0% ≤ substrate protein remaining % ≤ 80%)
9 | O=C1CCN(N2C(=O)c3ccc(CN4CCC(N5CCCc6cc(F)ccc65)CC4)cc3C2=O)C(=O)N1 [GT-07681, 2-(2,4-dioxotetrahydropyrimidin-1(2H)-yl)-5-((4-(6-fluoro-3,4-dihydroquinolin-1(2H)-yl)piperidin-1-yl)methyl)isoindoline-1,3-dione] | A (0% ≤ substrate protein remaining % ≤ 80%) | B (80%< substrate protein remaining %≤ 100%) | B (80%< substrate protein remaining %≤ 100%) | B (80%< substrate protein remaining %≤ 100%) | B (80%< substrate protein remaining %≤ 100%) | A (0% ≤ substrate protein remaining % ≤ 80%)
10 | O=C1CCN(N2C(=O)c3ccc(CN4CCC(N5CCOc6cc(F)ccc65)CC4)cc3C2=O)C(=O)N1 [GT-07682, 2-(2,4-dioxotetrahydropyrimidin-1(2H)-yl)-5-((4-(7-fluoro-2,3-dihydro-4H-benzo[b][1,4]oxazin-4-yl)piperidin-1-yl)methyl)isoindoline-1,3-dione] | A (0% ≤ substrate protein remaining % ≤ 80%) | B (80%< substrate protein remaining %≤ 100%) | B (80%< substrate protein remaining %≤ 100%) | B (80%< substrate protein remaining %≤ 100%) | B (80%< substrate protein remaining %≤ 100%) | B (80%< substrate protein remaining %≤ 100%)
11 | O=C1CCN(N2C(=O)c3ccc(CN4CCC(N5C(=O)COc6cc(F)ccc65)CC4)cc3C2=O)C(=O)N1 [GT-07683, 2-(2,4-dioxotetrahydropyrimidin-1(2H)-yl)-5-((4-(7-fluoro-3-oxo-2,3-dihydro-4H-benzo[b][1,4]oxazin-4-yl)piperidin-1-yl)methyl)isoindoline-1,3-dione] | A (0% ≤ substrate protein remaining % ≤ 80%) | B (80%< substrate protein remaining %≤ 100%) | B (80%< substrate protein remaining %≤ 100%) | B (80%< substrate protein remaining %≤ 100%) | B (80%< substrate protein remaining %≤ 100%) | B (80%< substrate protein remaining %≤ 100%)

Source: patent EP4722207A1, “OXOISOINDOLINYL-SUBSTITUTED TETRAHYDROPYRIMIDINEDIONE DERIVATIVE AND USE THEREOF” (Gluetacs Therapeutics (Shanghai) Co., Ltd., priority 2023, dated 2024)
